According to patent publication US4965280A, “Antifungal carbinols” (E. I. Du Pont de Nemours and Company, priority 1989, dated 1990):
≈ marks a conversion by molar mass, not a printed value. Read-outs that look alike come from different tables or passages of the source.

Assays:
Phytophthora infestans = experiment: whole plant or invertebrate; assay type: in vivo; conditions: Phytophthora infestans, in Solanum lycopersicum, read-out: disease control rating, Ex. H, 100 PPM
[1] = system: Candida albicans ATCC 11651; experiment: In vitro antifungal MIC, microtiter broth dilution; conditions: Candida albicans, ATCC11651, 24 h, read-out: MIC values, C. albicans, 30°, 24 hours
[2] = system: Candida albicans ATCC 11651; experiment: In vivo systemic Candida infection in mice, primary assay; parameters: species or system Candida albicans; CF-1 female mice; conditions: Candida albicans, 150 mg/kg per day, read-out: % Survival
Source text: The […] activity of test compounds is based on the percent (%) survival of infected animals receiving test or standard agent compared to that in an infected untreated group (Table 6). The in vivo assays are chronic systemic infections lethal to mice within 7 days post infection, [J. Barnes, et al. Lab Investigation, 49 460-467 (1963), and T. Rogers and E. Balish, Infection and Immunity, 14 33-38 (1976)].
Candida albicans ATCC 11651, from a frozen stock culture (10^9 organisms/ml) maintained at -70°, is diluted in saline to 1×10^7 organisms/ml and 0.2 ml inoculated intravenously (caudal vein) into 20.0 gm CF-1 female mice (Charles River).
Test compounds are routinely solubilized in 0.25% (w/v) methylcellulose (Methocel®) but for those compounds difficult to solubilize 10% (w/v) Emulophor® (EL620 GAF Corp.) is used. The standard antifungal agents, amphotericin B (Fungizone®) in water and ketoconazole (Nizoral®) in Methocel®, are administered at 1.0 mg/kg/day and 150 mg/kg/day, respectively.
In a primary assay, mice (10 per group) are infected with C. albicans, and receive test compounds at 50 or 150 mg/kg/day via the subcutaneous route. Animals are dosed with the test compound at 1 and 6 hour post-infection and then once daily for the next three days. Survival of mice in each group is recorded for 21 days.
Compounds which protect ≥70% of the infected animals for 14 days at a dose 150 mg/kg/day or less are viewed as active.

[3] = system: Aspergillus fumigatus ATCC 28214; experiment: In vitro antifungal MIC, microtiter broth dilution; conditions: Aspergillus fumigatus, ATCC28214, 24 h, read-out: MIC values, A. fumigatus, 30°, 24 hours
Puccinia recondita = experiment: Example G wheat leaf rust; assay type: in vivo; conditions: read-out: disease control rating, Ex. G
Plasmorpara viticola = experiment: Example I grape downy mildew; assay type: in vivo; conditions: read-out: disease control rating, Ex. I
Description: (§1) The test compounds were dissolved in acetone in an amount equal to 6% of the final volume and then suspended at a concentration of 100 or 20 ppm in purified water containing 250 ppm of the surfactant TREM 014 (polyhydric alcohol esters). This suspension was sprayed to the point of run-off on grape seedlings.

Pyricularia oryzae = experiment: whole plant or invertebrate; assay type: in vivo; conditions: Pyricularia oryzae, 120 h; for pest or weed control at 100 ppm: read-out: disease control rating, Ex. E, 100 PPM; for pest or weed control at 20 ppm: read-out: disease control rating, Ex. E, 20 PPM
Pythium aphanadermatum = experiment: Example J cucumber damping off; assay type: in vivo; parameters: key to phytotoxicity entry, Ex. J: P: disease control was not measured due to phytoxicity; conditions: 5 kg/ha; for pest or weed control at 5000 g/ha: Pythium, 336 h, read-out: disease control rating, Ex. J
Description: […] Seeds and soil were then inoculated with a mixture of sand, cereal and mycelium of the fungus Pythium aphanadermatum, causal agent of cucumber damping off, and incubated in a growth chamber at 30° C. for 14 days. Disease ratings were then made.

Rhizoctonia solani = experiment: Example F rice sheath blight; assay type: in vivo; conditions: Rhizoctonia solani, 144 h, read-out: disease control rating, Ex. F
Description: as §1, with “rice” for “grape”

Botrytis cinerea = experiment: Example C bean grey mold; assay type: in vivo; conditions: Botrytis cinerea, 24 h, read-out: disease control rating, Ex. C
Description: as §1, with “broad bean” for “grape”

Venturia inaequalis = experiment: Example A apple scab; assay type: in vivo; conditions: read-out: disease control rating, Ex. A
Description: as §1, with “apple seedings.” for “grape seedlings.”

[4] = system: Erysiphe graminis f. sp. tritici; experiment: Example D wheat powdery mildew; assay type: in vivo; conditions: Blumeria graminis, 144 h, read-out: disease control rating, Ex. D
Description: as §1, with “wheat” for “grape”

[5] = system: Cercosporidium personatum; experiment: Example B Peanut Late Leafspot; assay type: in vivo; conditions: Nothopassalora personata, read-out: disease control rating, Ex. B
Description: as §1, with “peanut” for “grape”

Row | SMILES | pest or weed control at 100 ppm (Phytophthora infestans) | MIC [1] | responders at 150 mg/kg ([2]; ATCC11651, 168 h, day 7) | responders at 150 mg/kg ([2]; ATCC11651, 336 h, day 14) | responders at 150 mg/kg ([2]; ATCC11651, 504 h, day 21) | MIC [3] | pest or weed control at 100 ppm (Puccinia recondita) | pest or weed control at 100 ppm (Plasmorpara viticola) | pest or weed control at 100 ppm (Pyricularia oryzae) | pest or weed control at 100 ppm (Rhizoctonia solani) | pest or weed control at 100 ppm (Botrytis cinerea) | pest or weed control at 100 ppm (Venturia inaequalis) | pest or weed control at 100 ppm [4] | pest or weed control at 20 ppm (Puccinia recondita) | pest or weed control at 20 ppm (Pyricularia oryzae) | pest or weed control at 20 ppm (Rhizoctonia solani) | pest or weed control at 20 ppm (Botrytis cinerea) | pest or weed control at 20 ppm (Venturia inaequalis) | pest or weed control at 20 ppm [4] | pest or weed control at 20 ppm [5] | further results
1 | C=C(c1ccccc1C(F)(F)F)C(O)(Cn1cncn1)c1ccc(F)cc1 (centres unmarked) [Example 724] | 0% | 0.4 µg/mL (≈ 1.06 µM) | 100% | 90% | 40% | 0.4 µg/mL (≈ 1.06 µM) | 100% | 0% | 63% | 100% | 95% | 100% | 100% | – | – | – | – | – | – | – | pest or weed control at 5000 g/ha (Pythium aphanadermatum): 0%; pest or weed control at 100 ppm [5]: 100%
2 | C=C(CN1CC(C)OC(C)C1)C(O)(Cn1cncn1)c1ccc(F)cc1 (centres unmarked) [Example 477] | 0% | > 100 µg/mL | – | – | – | – | 100% | 0% | 48% | 48% | 76% | 95% | 100% | – | – | – | – | – | – | – | phytotoxicity entry, Ex. J (Pythium aphanadermatum): P; pest or weed control at 100 ppm [5]: 100%
3 | C=C(c1ccc(F)cc1)C(O)(Cn1cncn1)c1ccccc1 (centres unmarked) [Example 656] | 0% | ≤ 0.4 µg/mL | 100% | 90% | 40% | 12.5 µg/mL (≈ 40.4 µM) | 100% | 20% | 0% | 50% | 88% | 93% | 97% | – | – | – | – | – | – | – | pest or weed control at 5000 g/ha (Pythium aphanadermatum): 0%; pest or weed control at 100 ppm [5]: 100%
4 | C=C(c1ccc(SC)cc1)C(O)(Cn1cncn1)c1ccc(F)cc1F (centres unmarked) [Example 164] | 8% | 0.03 µg/mL (≈ 0.0803 µM) | 100% | 80% | 70% | 1.6 µg/mL (≈ 4.28 µM) | – | 0% | 15% | 0% | 84% | – | – | 100% | 5% | 0% | 57% | 82% | 88% | 100% | –
5 | C=C(c1ccc(F)cc1)C(O)(CC)Cn1cncn1 (centres unmarked) [Example 668] | 22% | 0.4 µg/mL (≈ 1.53 µM) | 70% | 10% | 0% | 50 µg/mL (≈ 191 µM) | – | 31% | 1% | 0% | 76% | – | – | 100% | 1% | 0% | 31% | 65% | 31% | 17% | –
6 | C=C(c1ccc(F)cc1)C(Cn1cncn1)(OC(C)=O)c1ccc(F)cc1 (centres unmarked) [Example 361] | 27% | 0.8 µg/mL (≈ 2.17 µM) | 100% | 100% | 90% | 25 µg/mL (≈ 67.7 µM) | – | 9% | 1% | 0% | 46% | – | – | 100% | 1% | 0% | 29% | 43% | 33% | 26% | –
7 | C=C(c1ccc(Cl)cc1)C(O)(Cn1cncn1)c1ccc(Cl)c(Cl)c1 (centres unmarked) [Example 675] | 0% | 0.1 µg/mL (≈ 0.253 µM) | 100% | 60% | 0% | 25 µg/mL (≈ 63.3 µM) | – | 69% | 0% | 62% | 30% | – | – | 16% | 0% | 0% | 42% | 40% | 44% | 0% | –
8 | C=C(c1ccccc1Cl)C(O)(Cn1cncn1)c1ccc(Cl)c(Cl)c1 (centres unmarked) [Example 627] | 0% | 0.03 µg/mL (≈ 0.076 µM) | 0% | 0% | 0% | 25 µg/mL (≈ 63.3 µM) | – | 61% | 0% | 14% | 38% | – | – | 99% | 0% | 0% | 19% | 31% | 81% | 70% | –
9 | C=C(c1ccc(F)cc1)C(O)(Cn1cncn1)c1cccc(C(F)(F)F)c1 (centres unmarked) [Example 661] | 5% | 1.6 µg/mL (≈ 4.24 µM) | 50% | 20% | 0% | 100 µg/mL (≈ 265 µM) | – | 85% | 0% | 70% | 56% | – | – | 100% | 0% | 10% | 61% | 81% | 62% | 79% | –
